Source: US10858365B2, “Triazolo-pyrimidine compounds and uses thereof” (Dizal (Jiangsu) Pharmaceutical Co., Ltd., priority 2018, dated 2020)

Assays:
Format in all cases: cell-based
[1] = target: hA2a (Homo sapiens (Human), UniProt P29274); test: cAMP inhibition assay in hA2a/CHO cells; details: adenosine stimulation, read-out: cAMP & FLIPR IC50 (nM) hA2a
Protocol: (§1) hA2a/CHO, hA2b/CHO and mA2a/CHO (Genscript) were plated at 5×10^3 cells/well into 384-well polystyrene plates at the day of experiment. Compounds were pre-incubated with cells for 30 min at 37° C., 5% CO2. Then […] adenosine was added to the cells and incubated for 30 min at 37° C., 5% CO2. Detection reagent (CISBIO) was added and the plates were incubated for 60 min at room temperature. The signal was captured by Envision.
FLIPR™ and cAMP inhibition activities of exemplary compounds in different adenosine receptor over-expressing cell lines are shown in Table 4 below.

[2] = target: hA2b (Homo sapiens (Human), UniProt P29275); test: cAMP inhibition assay in hA2b/CHO cells; details: adenosine stimulation, read-out: cAMP & FLIPR IC50 (nM) hA2b
Chain of hA2b (P29275 whole entry): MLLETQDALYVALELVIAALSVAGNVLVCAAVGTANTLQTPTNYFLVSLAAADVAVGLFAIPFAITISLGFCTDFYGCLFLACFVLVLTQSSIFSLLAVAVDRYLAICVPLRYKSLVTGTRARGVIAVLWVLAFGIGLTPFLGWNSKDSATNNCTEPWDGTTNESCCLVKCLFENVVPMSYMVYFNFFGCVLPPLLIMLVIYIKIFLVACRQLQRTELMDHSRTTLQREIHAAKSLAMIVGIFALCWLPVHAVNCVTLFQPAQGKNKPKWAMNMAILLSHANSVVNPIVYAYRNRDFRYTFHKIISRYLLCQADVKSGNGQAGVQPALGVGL
Protocol: as §1

[3] = target: mA2a (Mus musculus (Mouse), UniProt Q60613); test: cAMP inhibition assay in mA2a/CHO cells; details: adenosine stimulation, read-out: cAMP & FLIPR IC50 (nM) mA2a
Chain of mA2a (Q60613 whole entry): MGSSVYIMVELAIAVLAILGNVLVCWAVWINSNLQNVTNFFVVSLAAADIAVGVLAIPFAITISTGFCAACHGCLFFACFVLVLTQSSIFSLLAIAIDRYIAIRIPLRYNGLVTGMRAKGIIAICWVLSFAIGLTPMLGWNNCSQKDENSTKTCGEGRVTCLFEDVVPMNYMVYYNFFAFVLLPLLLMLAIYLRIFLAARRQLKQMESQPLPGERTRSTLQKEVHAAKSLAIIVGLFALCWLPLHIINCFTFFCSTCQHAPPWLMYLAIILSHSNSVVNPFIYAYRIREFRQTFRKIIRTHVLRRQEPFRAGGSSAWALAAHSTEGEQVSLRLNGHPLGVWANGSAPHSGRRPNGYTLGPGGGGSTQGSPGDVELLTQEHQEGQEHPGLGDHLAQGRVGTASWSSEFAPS
Protocol: as §1

[4] = target: hA1 (Homo sapiens (Human), UniProt P30542); test: FLIPR inhibition assay in hADORA1/CHO (hA1 expressing) cells; details: hADORA1/CHO cells, FLIPR calcium, adenosine stimulation; read-out: cAMP & FLIPR IC50 (nM) hA1
Chain of hA1 (P30542 whole entry): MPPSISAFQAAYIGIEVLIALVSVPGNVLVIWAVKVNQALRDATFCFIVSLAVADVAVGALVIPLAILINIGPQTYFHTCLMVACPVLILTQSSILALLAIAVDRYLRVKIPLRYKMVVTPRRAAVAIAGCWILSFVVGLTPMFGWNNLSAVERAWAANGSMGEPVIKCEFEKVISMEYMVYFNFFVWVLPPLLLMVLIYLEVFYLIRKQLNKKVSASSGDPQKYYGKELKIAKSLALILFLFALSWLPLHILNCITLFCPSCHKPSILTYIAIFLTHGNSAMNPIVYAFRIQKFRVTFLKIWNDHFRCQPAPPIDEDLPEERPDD
Protocol: hADORA1/CHO (hA1 expressing) cells (Genscript) were plated at 1×10^4 cells/well into 384-well polystyrene plates one day before starting the experiment. On the day of experiment, the supernatant was discard and replaced with 40 µL of dye (FLIPR calcium 5 Assay Kit) per well and the plates were incubated for 60 mins at 37° C. plus 5% CO2. Then testing compounds were added at different concentrations for FLIPR™ inhibition assay. After a 400 s incubation with compound, […] adenosine was added into the cells, and the signal was captured by FLIPR.

Chain of hA2a (P29274 whole entry): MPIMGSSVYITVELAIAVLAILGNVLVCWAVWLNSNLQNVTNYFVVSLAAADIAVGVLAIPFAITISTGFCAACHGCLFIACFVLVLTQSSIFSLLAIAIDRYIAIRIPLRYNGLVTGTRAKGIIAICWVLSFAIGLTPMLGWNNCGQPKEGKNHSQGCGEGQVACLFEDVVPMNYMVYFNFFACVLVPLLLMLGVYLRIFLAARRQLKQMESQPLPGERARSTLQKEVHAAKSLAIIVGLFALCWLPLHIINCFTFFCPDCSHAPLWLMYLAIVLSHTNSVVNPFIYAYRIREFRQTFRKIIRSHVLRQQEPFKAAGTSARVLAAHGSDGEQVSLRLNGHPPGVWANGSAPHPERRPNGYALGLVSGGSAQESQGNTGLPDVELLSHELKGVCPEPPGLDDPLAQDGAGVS

SMILES | IC50 [1] [nM] | IC50 [2] [nM] | IC50 [3] [nM] | IC50 [4] [nM]
Cc1cnc2ccc(-c3c(-c4ncco4)nc(N)n4nc(CC5CCOC5)nc34)cn12 (single isomer, unassigned) [Example 107-2, 8-(3-methylimidazo[1,2-a]pyridin-6-yl)-7-(oxazol-2-yl)-2-((tetrahydrofuran-3-yl)methyl)-[1,2,4]triazolo[1,5-f]pyrimidin-5-amine] | 0.5 | 473 | 27.7 | 34.5
Cc1cnc2ccc(-c3c(-c4ccc(F)cc4)nc(N)n4nc(CC5CCOC5)nc34)cn12 (single isomer, unassigned; isomer 1) [Example 105-1, 7-(4-fluorophenyl)-8-(3-methylimidazo[1,2-a]pyridin-6-yl)-2-((tetrahydrofuran-3-yl)methyl)-[l,2, 4]triazolo[1,5-c]pyrimidin-5-amine(isomer 1)] | 0.1 | 47.5 | 1 | 14
Nc1nc(-c2ccc(F)cc2)c(-c2ccnc(C(F)(F)F)c2)c2nc(Cc3c(F)cccc3F)nn12 [Example 4, 2-[(2,6-difluorophenyl)methyl]-7-(4-fluorophenyl)-8-[2-(trifluoromethyl)pyridin-4-yl]-[1,2,4]triazolo[1,5-c]pyrimidin-5-amine] | 52 | 254 | 24 | 511
Cc1cc(-c2c(-c3ccc(F)cc3)nc(N)n3nc(Cc4cccc(Cl)n4)nc23)ccn1 [Example 15, 2-[(6-chloropyridin-2-yl)methyl]-7-(4-fluorophenyl)-8-(2-methylpyridin-4-yl)-[1,2,4]triazolo[1,5-c]pyrimidin-5-amine] | 46 | 582 | 88 | 27
Cc1nccc(-c2c(-c3ccc(F)cc3)nc(N)n3nc(Cc4c(F)cccc4F)nc23)c1C [Example 16, 2-(2,6-difluorobenzyl)-8-(2,3-dimethylpyridin-4-yl)-7-(4-fluorophenyl)-[1,2,4]triazolo[1,5-c] pyrimidin-5-amine] | 174 | 125 | 758 | 205
Cc1cc(-c2c(-c3ccc(F)cc3)nc(N)n3nc(Cc4cccc(N(C)C)n4)nc23)ccn1 [Example 17, 2-((6-(dimethylamino)pyridin-2-yl)methyl)-7-(4-fluorophenyl)-8-(2-methylpyridin-4-yl)-[1,2,4]triazolo[1,5-f]pyrimidin-5-amine] | 43 | 4790 | 51 | 22
Nc1nc(-c2ccc(F)cc2)c(-c2ccc(=O)n(C3CCOC3)c2)c2nc(Cc3c(F)cccc3F)nn12 (stereo not shown) [Example 23, 5-(5-amino-2-(2,6-difluorobenzyl)-7-(4-fluorophenyl)-[1,2,4]triazolo[1,5-c]pyrimidin-8-yl)-1-(tetrahydrofuran-3-yl)pyridin-2(1H)-one] | 7.7 | 2060 | 2.9 | 26
Cc1ccc(-c2nc(N)n3nc(Cc4c(F)cccc4F)nc3c2-c2ccc(=O)n(C)c2)cn1 [Example 24, 5-[5-amino-2-[(2,6-difluorophenyl)methyl]-7-(6-methylpyridin-3-yl)-[1,2,4]triazolo[1,5-c]pyrimidin-8-yl]-1-methyl-1,2-dihydropyridin-2-one] | 58 | 631 | 162 | 12
Cc1cnc(-c2nc(N)n3nc(Cc4c(F)cccc4F)nc3c2-c2ccc(=O)n(C)c2)o1 [Example 26, 5-(5-amino-2-(2,6-difluorobenzyl)-7-(5-methyloxazol-2-yl)-[l,2,4]triazolo[l,5-c]pyrimidin-8-yl)-1-methylpyridin-2(1H)-one] | 15 | 457 | 34 | 33
Cc1coc(-c2nc(N)n3nc(Cc4c(F)cccc4F)nc3c2-c2ccc(=O)n(C)c2)n1 [Example 27, 5-(5-amino-2-(2,6-difluorobenzyl)-7-(4-methyloxazol-2-yl)-[1,2,4]triazolo[1,5-c]pyrimidin-8-yl)-1-methylpyridin-2(1H)-one] | 139 | 10000 | 245 | 112
Cn1cc(-c2c(Cl)nc(N)n3nc(Cc4c(F)cccc4F)nc23)ccc1=O [Example 28, 5-(5-amino-7-chloro-2-(2,6-difluorobenzyl)-[1,2,4]triazolo[1,5-c]pyrimidin-8-yl)-1-methylpyridin-2(1H)-one] | 158 | 6420 | 217 | 1150
Cc1cc(-c2c(-c3ccc(F)cc3)nc(N)n3nc(Cc4ncccc4F)nc23)cn(C)c1=O [Example 29, 5-(5-amino-7-(4-fluorophenyl)-2-((3-fluoropyridin-2-yl)methyl)-[1,2,4]triazolo[1,5-c]pyrimidin-8-yl)-l,3-dimethylpyridin-2(1H)-one] | 3.8 | 91 | 5.1 | 4.3
Cn1nc(-c2c(-c3ccc(F)cc3)nc(N)n3nc(Cc4ncccc4F)nc23)ccc1=O [Example 30, 6-(5-amino-7-(4-fluorophenyl)-2-((3-fluoropyridin-2-yl)methyl)-[1,2,4]triazolo[1,5-f]pyrimidin-8-yl)-2-methylpyridazin-3(2H)-one] | 5.9 | 160 | 25 | 16
Cc1cc(-c2c(-c3ncco3)nc(N)n3nc(Cc4c(F)cccc4F)nc23)cc(C)n1 [Example 33, 2-[(2,6-difluorophenyl)methyl]-8-(2,6-dimethylpyridin-4-yl)-7-(1,3-oxazol-2-yl)-[1,2,4]triazolo[1,5-c]pyrimidin-5-amine] | 18 | 10000 | 109 | 6940
Cn1cc(-c2c(-c3ccc(F)cc3)nc(N)n3nc(Cc4cccc(N)n4)nc23)ccc1=O [Example 35, 5-(5-amino-2-((6-aminopyridin-2-yl)methyl)-7-(4-fluorophenyl)-[1,2,4]triazolo[1,5-c]pyrimidin-8-yl)-1-methylpyridin-2(1H)-one] | 27 | 173 | 23 | 35
Nc1nc(-c2ccc(F)cc2)c(-c2ccc(=O)n(C3CC3)c2)c2nc(Cc3ncccc3F)nn12 [Example 36, 5-(5-amino-7-(4-fluorophenyl)-2-((3-fluoropyridin-2-yl)methyl)-[1,2,4]triazolo[1,5-c]pyrimidin-8-yl)-1-cyclopropylpyridin-2(1H)-one] | 20 | 408 | 31 | 45
Nc1cc(-c2c(-c3ccc(F)cc3)nc(N)n3nc(Cc4ncccc4F)nc23)ccn1 [Example 38, 8-(2-aminopyridin-4-yl)-7-(4-fluorophenyl)-2-((3-fIuoropyridin-2-yl)methyl)-[1,2,4]triazolo[1,5-c]pyrmidin-5-amine] | 41 | 38 | 263 | 8.6
Cn1cc(-c2c(-c3ccc(F)c(F)c3)nc(N)n3nc(Cc4ncccc4F)nc23)ccc1=O [Example 39, 5-[5-amino-7-(3,4-difluorophenyl)-2-[(3-fluoropyridin-2-yl)methyl]-[1,2,4]triazolo[1,5-c]pyrimidin-8-yl]-1-methyl-1,2-dihydropyridin-2-one] | 18 | 235 | 39 | 15
Cn1cc(-c2c(-c3cccc(F)c3)nc(N)n3nc(Cc4ncccc4F)nc23)ccc1=O [Example 40, 5-(5-amino-7-(3-fluorophenyl)-2-((3-fluoropyridin-2-yl)methyl)-[1,2,4]triazolo[1,5-c]pyrimidin-8-yl)-1-methylpyridin-2(1H)-one] | 5.2 | 72 | 15 | 18
Cn1cc(-c2c(-c3ccc(F)cc3)nc(N)n3nc(Cc4nccs4)nc23)ccc1=O [Example 42, 5-[5-amino-7-(4-fluorophenyl)-2-[(1,3-thiazol-2-yl)methyl]-[1,2,4]triazolo[1,5-c]pyrimidin-8-yl]-1-methyl-1,2-dihydropyridin-2-one] | 7.9 | 206 | 13 | 6.6
CNc1cc(-c2c(-c3ccc(F)cc3)nc(N)n3nc(Cc4ncccc4F)nc23)ccn1 [Example 43, 7-(4-fluorophenyl)-2-((3-fluoropyridin-2-yl)methyl)-8-(2-(methylamino)pyridin-4-yl)-[1,2,4]triazolo[1,5-c]pyrimidin-5-amine] | 19 | 12 | 41 | 24
Cn1cc(-c2c(-c3nccs3)nc(N)n3nc(Cc4c(F)cccc4F)nc23)ccc1=O [Example 44, 5-(5-amino-2-(2,6-difluorobenzyl)-7-(thiazol-2-yl)-[1,2,4]triazolo[1,5-c]pyrimidin-8-yl)-l-methyl pyridin-2(lH)-one] | 4.3 | 97 | 5.9 | 13
